Earlier results in PMC10747602, “Dose Response, Dosimetric, and Metabolic Evaluations of Replacement PFAS Perfluoro-(2,5,8-trimethyl-3,6,9-trioxadodecanoic) Acid (HFPO-TeA)” (Toxics, 2023).
Where two headings read alike, the source gives them in different places.

How the values were obtained:
[1] = male mice, 2.5 mg/kg/day orally for 28 days; cited from earlier work
[2] = design: method as in PMID 21948869, PMID 36309054; settings: cited from earlier work
[3] = design: method as in PMID 18661093; settings: male rats, 5 mg/kg/day orally for 28 days; cited from earlier work

O=C(O)C(F)(F)C(F)(F)C(F)(F)C(F)(F)C(F)(F)C(F)(F)C(F)(F)F [PFOA, perfluorooctanoic acid]
Kp [1]: 1.54 | underestimation of Css values by previous IVIVE evaluations [2]: > 100 × | Kp [3]: 5.88
